This is an account of results in patent US20180000778A1, “SMALL MOLECULE ANTAGONISTS OF DUSP5 AND METHODS OF USE” (THE MEDICAL COLLEGE OF WISCONSIN, INC., priority 2015, published 2018).

SMILES strings stand for the structures. Several values for one entry are separate records, joined by “and”; a condition that tells them apart may be missing. Equal values may be shown once. A value given as a limit tells only on which side of the number the result lay.

The subject of data set [1] is pERK levels in HUVEC cells. Description: pERK levels in HUVEC cells, western blot. In kind it is cell-based, Human. Particulars: HUVECs incubated 2 hours, pERK relative to total ERK; Na3VO4 at 200 μM. The protocol: Cell Culture and Western Blots.
Human Umbilical Vein Endothelial Cells (HUVECs) were maintained in EBM2 media (Lonza, CC-3156) supplemented with a combined serum and growth factor kit (Lonza, CC-4176). Cells were incubated with the indicated concentrations of drug for 2 h and lysed with RIPA buffer (Sigma, R0278) on ice. Cell lysates were cleared by centrifugation at 16,300×g for 30 min. The resulting supernatants were isolated and protein concentration determined by Lowry assay (DC protein assay, BioRad). 2× laemmli sample buffer was added to equal amounts of protein and separated by SDS-PAGE. The protein gels were transferred to polyvinylidene difluoride (PVDF) and immunoblotted using antibodies to phosphorylated ERK (Cell Signaling, #9106) and total ERK (Cell Signaling, #9102). Bound antibodies were visualized using horseradish peroxidase-linked anti-rabbit IgG, anti-mouse IgG (Cell Signaling Tech., #7074 and #7076) and ECL reagents (Thermo Scientific, 34080) according to the manufacturer's protocol.
In general terms: In western blotting, separated proteins are transferred to a membrane and probed.

For data set [2], the system named is normal vasculature in a developing embryo. Kind of data set: Effect on normal vasculature in a developing embryo.
A further data set concerns the target T1, PTPN1 (Homo sapiens, UniProt P18031).
T1 sequence (P18031 1-435): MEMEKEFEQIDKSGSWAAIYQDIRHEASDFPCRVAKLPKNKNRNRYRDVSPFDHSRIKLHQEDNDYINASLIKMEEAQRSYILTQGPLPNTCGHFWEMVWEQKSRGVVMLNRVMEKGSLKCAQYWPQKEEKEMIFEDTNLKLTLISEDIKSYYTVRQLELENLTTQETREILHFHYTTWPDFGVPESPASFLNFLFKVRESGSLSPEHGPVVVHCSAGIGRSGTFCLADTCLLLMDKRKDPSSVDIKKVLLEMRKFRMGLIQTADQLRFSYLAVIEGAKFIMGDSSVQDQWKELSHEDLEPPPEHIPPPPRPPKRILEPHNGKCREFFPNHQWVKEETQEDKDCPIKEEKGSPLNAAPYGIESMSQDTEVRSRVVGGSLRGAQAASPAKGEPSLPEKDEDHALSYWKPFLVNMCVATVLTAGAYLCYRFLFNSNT
Description: Phosphatase inhibition profiles (Table 4), initial rates. In kind it is biochemical.

For a further data set, the target named is T2, DUSP5 (PD)-WT (Homo sapiens, UniProt Q16690).
T2 construct: hexa-histidine (N); made in house; host or cells: E. coli BL21(DE3)
T2 sequence (Q16690 178-319): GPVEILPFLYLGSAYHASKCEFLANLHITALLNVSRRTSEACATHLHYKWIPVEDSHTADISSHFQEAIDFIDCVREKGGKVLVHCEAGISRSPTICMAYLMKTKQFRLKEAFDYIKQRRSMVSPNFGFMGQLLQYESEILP
The data set is described as above. The data set is classed as biochemical. Particulars: using ERK2 as substrate, read-out: IC50 DUSP5 (PD)-WT (mean ± SE).

In data set [3] the target is T3, GST-tagged full length DUSP5 (Homo sapiens, UniProt Q16690).
T3 construct: GST-tagged full length DUSP5, when pNPP was used as a substrate
T3 sequence (Q16690 whole entry): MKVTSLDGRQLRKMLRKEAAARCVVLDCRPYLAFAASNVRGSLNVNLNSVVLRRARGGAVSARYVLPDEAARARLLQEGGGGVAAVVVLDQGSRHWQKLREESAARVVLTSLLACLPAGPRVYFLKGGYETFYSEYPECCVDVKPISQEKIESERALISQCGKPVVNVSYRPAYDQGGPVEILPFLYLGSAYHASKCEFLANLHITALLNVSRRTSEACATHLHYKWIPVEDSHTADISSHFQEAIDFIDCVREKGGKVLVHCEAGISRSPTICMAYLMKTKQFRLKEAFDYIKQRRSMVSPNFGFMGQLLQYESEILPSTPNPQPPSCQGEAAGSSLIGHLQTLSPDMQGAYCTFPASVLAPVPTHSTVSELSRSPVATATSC
Kind of data set: pNPP assay with GST-tagged full length DUSP5. In kind it is biochemical. Particulars: full length DUSP5, pNPP as substrate; listed as CSD3-2320.

Another data set deals with PTPN2 (TC-PTP) (Homo sapiens, UniProt P17706). Description: Phosphatase profiling, pNPP substrate. The data set is classed as biochemical. Particulars: 30 μM, triplicate; positive = activation. The protocol: (§1) Assays were performed to profile compound CSDDD2320 against 21 phosphatase targets at 1 concentration (30 μM) in triplicate measurements. The aim was to identify whether the compound can affect the activity of the various phosphatase targets selected.
Sequence of PTPN2 (TC-PTP) (P17706 whole entry, species assumed): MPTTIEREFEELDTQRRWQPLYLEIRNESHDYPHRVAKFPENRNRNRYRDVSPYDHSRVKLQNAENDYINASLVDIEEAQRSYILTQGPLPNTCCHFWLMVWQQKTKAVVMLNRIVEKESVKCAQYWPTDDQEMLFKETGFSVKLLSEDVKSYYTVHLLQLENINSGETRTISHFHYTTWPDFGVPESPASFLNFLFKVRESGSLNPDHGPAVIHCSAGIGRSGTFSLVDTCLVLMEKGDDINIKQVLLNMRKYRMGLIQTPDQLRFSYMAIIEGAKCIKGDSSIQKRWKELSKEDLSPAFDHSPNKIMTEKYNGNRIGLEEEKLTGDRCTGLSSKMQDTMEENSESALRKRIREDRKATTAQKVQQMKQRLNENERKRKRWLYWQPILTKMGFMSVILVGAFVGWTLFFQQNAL
(§2) Protein Phosphatase Assay: The DUSP22, PTPN2 (TC-PTP), PTPN7 (LC-PTP), PTPRA (LRP), PTPRC (CD45), PTPRE, PTPRS, PTPN1(PTP1B) and PTPN13(FAP-1) phosphatase activity was determined by performing assays at 37° C. for 15 minutes in a final volume of 100 μl according to the following assay reaction recipe:
(§3) Component 1. 5 μl of diluted active protein phosphatase
(§4) Component 2. 50 μl of 1.5 mM pNPP substrate assay solution
(§5) Component 3. 25 μl of phosphatase assay buffer
(§6) Component 4. 20 μl of compound (150 μM) or 10% DMSO
(§7) The assay was started by incubating the reaction mixture at 37° C. for 15 minutes. After the 15 minute incubation period, the assay was terminated by the addition of 25 μl of 2N NaOH stopping solution. The absorbance of the reaction solution was measured in a spectrophotometer at 405 nm. Blank control was set up that included all the assay components except the addition of the pNPP substrate (replaced with equal volume of phosphatase assay buffer). The corrected activity for various phosphatase targets was determined by removing the blank control value.

The target in a further data set is PTPN1 (PTP1B) (Homo sapiens, UniProt P18031). Kind of data set: Phosphatase profiling, pNPP substrate. In kind it is biochemical. The settings on record: 30 μM, triplicate; negative = inhibition. The protocol: as §1, §2, §3, §4, §5, §6, §7
The next data set deals with PTPRA (LRP) (Homo sapiens, UniProt P18433). Description: Phosphatase profiling, pNPP substrate. The settings on record: 30 μM, triplicate; positive = activation. The data set is classed as biochemical. The protocol: as §1, §2, §3, §4, §5, §6, §7
Sequence of PTPRA (LRP) (P18433 20-802, species assumed): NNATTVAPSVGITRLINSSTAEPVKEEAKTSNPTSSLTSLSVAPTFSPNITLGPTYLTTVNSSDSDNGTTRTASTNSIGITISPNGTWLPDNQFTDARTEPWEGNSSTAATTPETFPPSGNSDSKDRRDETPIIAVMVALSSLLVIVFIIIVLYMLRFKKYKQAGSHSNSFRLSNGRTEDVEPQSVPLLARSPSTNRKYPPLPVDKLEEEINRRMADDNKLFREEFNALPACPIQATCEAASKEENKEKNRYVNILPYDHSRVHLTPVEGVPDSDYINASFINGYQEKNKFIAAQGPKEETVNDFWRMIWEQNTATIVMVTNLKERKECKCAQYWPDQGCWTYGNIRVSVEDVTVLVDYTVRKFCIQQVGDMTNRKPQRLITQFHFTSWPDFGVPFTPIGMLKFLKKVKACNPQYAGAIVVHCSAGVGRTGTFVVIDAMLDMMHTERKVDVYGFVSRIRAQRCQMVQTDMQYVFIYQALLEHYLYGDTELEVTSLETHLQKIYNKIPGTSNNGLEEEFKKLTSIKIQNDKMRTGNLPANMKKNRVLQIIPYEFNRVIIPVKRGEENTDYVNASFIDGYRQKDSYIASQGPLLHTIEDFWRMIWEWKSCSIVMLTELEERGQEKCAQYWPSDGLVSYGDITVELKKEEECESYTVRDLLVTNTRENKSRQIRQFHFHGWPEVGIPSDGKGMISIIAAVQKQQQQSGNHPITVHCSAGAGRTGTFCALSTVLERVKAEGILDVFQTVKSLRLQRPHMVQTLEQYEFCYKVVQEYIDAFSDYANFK
The target of a further data set is PTPRE (Homo sapiens, UniProt P23469). Kind of data set: Phosphatase profiling, pNPP substrate. The data set is classed as biochemical. Particulars: 30 μM, triplicate; negative = inhibition; listed as CSDDD2320. The method, then: as §1, §2, §3, §4, §5, §6, §7
Sequence of PTPRE (P23469 20-700, species assumed): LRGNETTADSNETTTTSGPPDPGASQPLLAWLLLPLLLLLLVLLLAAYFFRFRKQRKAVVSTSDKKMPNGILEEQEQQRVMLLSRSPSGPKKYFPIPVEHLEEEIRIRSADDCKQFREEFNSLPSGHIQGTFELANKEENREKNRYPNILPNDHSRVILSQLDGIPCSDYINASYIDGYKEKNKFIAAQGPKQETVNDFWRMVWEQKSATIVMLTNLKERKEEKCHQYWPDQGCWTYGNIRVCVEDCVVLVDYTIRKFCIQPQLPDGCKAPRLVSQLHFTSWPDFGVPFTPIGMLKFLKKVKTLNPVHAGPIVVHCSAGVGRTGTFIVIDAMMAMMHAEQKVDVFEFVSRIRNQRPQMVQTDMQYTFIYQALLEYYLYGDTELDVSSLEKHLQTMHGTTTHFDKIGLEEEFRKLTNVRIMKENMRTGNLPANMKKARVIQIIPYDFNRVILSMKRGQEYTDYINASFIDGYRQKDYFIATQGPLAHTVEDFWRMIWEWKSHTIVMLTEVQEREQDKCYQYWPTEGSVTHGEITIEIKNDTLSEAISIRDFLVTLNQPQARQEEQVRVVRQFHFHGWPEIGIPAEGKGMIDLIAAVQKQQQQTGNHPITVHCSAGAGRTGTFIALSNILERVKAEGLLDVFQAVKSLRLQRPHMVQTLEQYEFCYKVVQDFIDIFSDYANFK
The target of the next data set is PTPRC (CD45) (Homo sapiens, UniProt P08575). Description: Phosphatase profiling, pNPP substrate. In kind it is biochemical. Particulars: 30 μM, triplicate; negative = inhibition; listed as CSDDD2320. The method, then:
as §1, §2, §3, §4, §5, §6, §7

Another data set deals with DUSP22 (MKPX) (Homo sapiens, UniProt Q9NRW4). Description: Phosphatase profiling, pNPP substrate. The data set is classed as biochemical. Particulars: 30 μM, triplicate; negative = inhibition; listed as CSDDD2320. The protocol:
as §1, §2, §3, §4, §5, §6, §7

A further data set concerns the target PTPN7 (LC-PTP) (Homo sapiens, UniProt P35236). Description: Phosphatase profiling, pNPP substrate. The data set is classed as biochemical. Particulars: 30 μM, triplicate; positive = activation. The protocol:
as §1, §2, §3, §4, §5, §6, §7

Another data set addresses PTPRS (PTP-sigma) (Homo sapiens, UniProt Q13332). Description: Phosphatase profiling, pNPP substrate. The data set is classed as biochemical. The settings on record: 30 μM, triplicate; negative = inhibition. The method, then: as §1, §2, §3, §4, §5, §6, §7
Another data set concerns the target PTPN13 (FAP-1) (Homo sapiens, UniProt Q12923). Description: Phosphatase profiling, pNPP substrate. The data set is classed as biochemical. The settings on record: 30 μM, triplicate; positive = activation. The method, then: as §1, §2, §3, §4, §5, §6, §7

Sequence of PTPRC (CD45) (P08575 26-1306, species assumed): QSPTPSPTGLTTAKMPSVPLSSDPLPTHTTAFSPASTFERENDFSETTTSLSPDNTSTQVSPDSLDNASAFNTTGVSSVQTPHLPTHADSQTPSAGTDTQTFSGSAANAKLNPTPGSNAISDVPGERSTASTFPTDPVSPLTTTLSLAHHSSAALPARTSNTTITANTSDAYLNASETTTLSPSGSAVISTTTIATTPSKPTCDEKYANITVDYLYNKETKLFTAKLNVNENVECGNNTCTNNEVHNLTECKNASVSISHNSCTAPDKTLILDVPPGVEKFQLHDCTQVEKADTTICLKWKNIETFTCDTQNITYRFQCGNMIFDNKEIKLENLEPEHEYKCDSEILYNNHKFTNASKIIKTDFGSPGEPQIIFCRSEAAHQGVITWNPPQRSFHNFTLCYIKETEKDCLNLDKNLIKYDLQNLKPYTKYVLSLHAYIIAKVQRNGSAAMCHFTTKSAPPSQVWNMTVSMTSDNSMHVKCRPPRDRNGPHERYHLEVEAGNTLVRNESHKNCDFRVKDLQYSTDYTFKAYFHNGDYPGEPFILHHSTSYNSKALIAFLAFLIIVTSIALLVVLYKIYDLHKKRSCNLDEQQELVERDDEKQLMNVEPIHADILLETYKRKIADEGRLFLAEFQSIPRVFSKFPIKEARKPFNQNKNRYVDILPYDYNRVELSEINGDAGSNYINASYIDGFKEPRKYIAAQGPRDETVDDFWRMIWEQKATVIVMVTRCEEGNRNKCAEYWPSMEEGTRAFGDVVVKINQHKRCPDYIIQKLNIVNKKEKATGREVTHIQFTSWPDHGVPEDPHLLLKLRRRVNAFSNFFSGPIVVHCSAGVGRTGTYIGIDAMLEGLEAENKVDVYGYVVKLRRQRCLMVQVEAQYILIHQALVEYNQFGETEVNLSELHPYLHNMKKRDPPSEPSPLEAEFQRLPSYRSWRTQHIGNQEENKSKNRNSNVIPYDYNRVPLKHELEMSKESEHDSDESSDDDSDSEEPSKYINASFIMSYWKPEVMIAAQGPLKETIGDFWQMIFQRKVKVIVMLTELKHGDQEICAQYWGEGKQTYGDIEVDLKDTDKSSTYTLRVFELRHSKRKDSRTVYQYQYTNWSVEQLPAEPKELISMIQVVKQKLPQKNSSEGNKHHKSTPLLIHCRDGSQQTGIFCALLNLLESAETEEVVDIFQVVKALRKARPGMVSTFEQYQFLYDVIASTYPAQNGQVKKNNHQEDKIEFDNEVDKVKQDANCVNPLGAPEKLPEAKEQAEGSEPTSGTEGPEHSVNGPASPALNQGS
Sequence of DUSP22 (MKPX) (Q9NRW4 whole entry, species assumed): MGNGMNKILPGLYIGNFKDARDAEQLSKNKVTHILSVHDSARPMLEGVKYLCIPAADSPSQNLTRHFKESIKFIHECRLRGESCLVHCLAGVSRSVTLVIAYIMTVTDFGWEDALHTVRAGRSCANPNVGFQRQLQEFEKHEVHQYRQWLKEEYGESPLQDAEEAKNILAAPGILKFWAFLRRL
Sequence of PTPN7 (LC-PTP) (P35236 whole entry, species assumed): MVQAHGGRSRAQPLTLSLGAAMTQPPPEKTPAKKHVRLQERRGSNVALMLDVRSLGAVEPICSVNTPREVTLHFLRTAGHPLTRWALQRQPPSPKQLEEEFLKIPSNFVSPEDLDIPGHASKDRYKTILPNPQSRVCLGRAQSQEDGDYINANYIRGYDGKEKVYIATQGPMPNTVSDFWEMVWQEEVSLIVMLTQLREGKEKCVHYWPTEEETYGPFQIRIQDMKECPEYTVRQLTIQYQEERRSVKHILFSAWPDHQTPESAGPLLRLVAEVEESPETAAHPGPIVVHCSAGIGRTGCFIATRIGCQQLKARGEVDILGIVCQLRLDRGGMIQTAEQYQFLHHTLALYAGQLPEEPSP

Turning to `O=S(=O)([O-])c1ccc2[nH]c3c(S(=O)(=O)[O-])cc(S(=O)(=O)[O-])cc3c2c1.[Na+].[Na+].[Na+]` [RR505, Carbazole-1,3,6-trisulfonic acid, Trisodium Salt], in data set [1], the “effect on pERK levels” value is listed as “do not show biologically useful levels of potency”. In addition, the “effect on normal vasculature” value in data set [2] was “does not appear to affect normal vasculature”.

The term IC50 denotes the concentration that gives 50% inhibition. `O=S(=O)(O)c1cc(O)c2c(S(=O)(=O)O)cccc2c1` [RR527]: the “IC50 PTPN1 (mean ± SE)” value at PTPN1 is “Does not inhibit”. In addition, the IC50 at DUSP5 (PD)-WT is over 1000 µM; in [3] it was 563 µM and 561 µM. Further, the “% Change (activity change compared to control)” value is on record as 2% on PTPN2 (TC-PTP); −4% at PTPN1 (PTP1B); 5% at PTPRA (LRP); −11% on PTPRE; −12% on PTPRC (CD45); −13% on DUSP22 (MKPX). Besides, the results for the “% Change (activity change compared to control)” value on PTPN7 (LC-PTP), at PTPRS (PTP-sigma) and on PTPN13 (FAP-1) were 7%, −6% and 6%, respectively.
